Assay [1] has as its system Chondrosarcoma. In words: Inhibitor treatment of spheroids from fresh human chondrosarcoma biopsy in collagen gel. It is filed as cell-based. Particulars: lowest collagen concentration 1.0 mg/ml; bright-field images after 6 days; treatment from 1 day post-injection. An excerpt:
(§1) FIG. 9: Spheroids obtained from two fresh human biopsies. […] The lowest concentration, row G, triggers the largest migration in Chondrosarcoma as well (G5) while the type of migration remains the same between the row F and row G (see F4, G5). […] Scale=100 μm.
(§2) Human biopsy material was obtained from surplus material from patients that were surgically treated for chondrosarcoma or osteosarcoma. Tumor cell suspensions were derived from biopsies by overnight collagenase treatment at room temperature.
(§3) Cell suspensions derived from trypsin-detached adherent cultures or from collagenase-treated biopsies were filtered to remove clumps, centrifuged at 1000 rpm for 5 minutes, and washed twice with PBS. ˜7×10^6 cells were re-suspended in 30 μl PBS containing 2% polyvinylpyrrolidone (PVP; Sigma-Aldrich). The PVP/cell suspension was loaded into a beveled pulled glass needle (Eppendorf CustomTip Type III, oD [μm] 60, Front surface 40, Flexibility: rigid).
(§4) Next, cell suspensions were derived from freshly isolated human biopsies of osteosarcoma and chondrosarcoma and injected in gels containing three different collagen concentrations. MS readily formed from these human biopsies and survival and migration could be studied for up to 1 week with the two tumor types showing distinct migratory behavior (FIG. 9). […] MS were treated with the range of compounds described above starting 1 day post-injection. […] Thus, the automated MS injection methodology has the potential to be used for large scale screening for the drug sensitivity spectrum of tumor cells freshly isolated from individual patients.

The test system of assay [2] is 4T1 cells. In words: Proof-of-principle drug screen on automatically injected 4T1 multicellular spheroids in collagen gel, 96 well plate. The format is cell-based, mouse. The following applies: for Feret's Diameter (longest distance between any two points along the selection boundary, maximum caliper), averages / Circularity (4π*area/perimeter^2, 1 = perfect circle), averages / Invasion area (area day 4/area day 0), averages: 1:1000 dilution (10 μM); for Feret's Diameter (longest distance between any two points along the selection boundary, maximum caliper), averages / Circularity (4π*area/perimeter^2, 1 = perfect circle), averages: automated analysis of fluorescent actin staining at day 4; for Feret's Diameter (longest distance between any two points along the selection boundary, maximum caliper), averages: Figure 7B, ctrl 0.67, unit assumed; for Circularity (4π*area/perimeter^2, 1 = perfect circle), averages: Figure 7C, ctrl 0.15; for Invasion area (area day 4/area day 0), averages: manual from DIC images at day 0 and day 4, Figure 7A, ctrl 25.88; for Cell migration from 4T1 spheroids: visual inspection / actin images after 4 days, 4, 10, 20 μM. On the procedure: as §3
A glass-bottom 96 well plate (Greiner) containing 60 μl solidified collagen gel per well was placed in a motorized stage (MTmot 200×100 MR, Märzhäuser) connected to a controller (Tango, Märzhäuser). A motorized micro-manipulator (Injectman II, Eppendorf) was positioned above the stage and connected to a pump (Femtojet Express, Eppendorf) featuring an external compressor (lubricated compressor, model 3-4, JUN-AIR). A firewire camera (DFK41BF02.H, The Imaging Source) equipped with an 8× macro lens (MR8/O, The Imaging Source) was placed beneath the stage for calibration and imaging. All components were connected to the controlling computer (Ubuntu AMD64). A multi-threaded control program was written in Python using PySerial and wxPython. Coriander software (http://damien.douxchamps.net/ieee1394/coriander) was used for imaging.
After the program was calibrated for the 96 well plate the camera height was adjusted to focus on the bottom of the 96 well plate. The plate was then removed for needle calibration: the injection needle was fixed in the Injectman and moved, using the Injectman controller, into the center of the image. The injection height was set to 200 µm above the bottom of the (virtual) plate. After the needle was moved up, the plate was placed back in position and the upper left well was used for multiple test injections to adjust pump pressure and injection time for optimization of the droplet size (300 µm diameter) using video inspection. Subsequently, using a pre-defined macro defining x-y coordinates and number of injections per well, all wells were injected using the same pressure and injection time.
Differential interference contrast (DIC) images were captured using a charged coupled device (CCD) camera with NIS Image Pro software at 10× dry objective. Quantification of spheroid invasion area was analyzed from DIC images using ImageJ. […] One-way ANOVA was performed to test the significance of the data (p<0.05). The data are presented and plotted as average and standard error of the mean; tables are available in the supplement.
For automated imaging, wells containing gel-embedded spheroids were treated with a fixation and staining cocktail containing 3.7% formaldehyde, 0.2% Triton X-100 (Sigma) and 0.1 μM rhodamine phalloidin (Sigma) for 3 hrs. Wells were washed extensively with PBS and plates were imaged on a Becton Dickinson Pathway 855 using a 4× lens. A montage of 12 frames was made for each Z plane, with a total of 24 Z planes at an interval of 50 μm. Image stacks were converted into 2D maximum fluorescence intensity projections using ImagePro 7.0. MS were then digitally segmented using ImageJ to identify the outline of individual spheroids and multiple parameters were measured, including spheroid Feret's diameter, roundness, and number of spheroids scored in each well.
LY-294002 (phosphatidylinositol 3-kinase), JSI-124-cucurbitacin (STAT3/Jak2), and NSC23766 (Rac1) were purchased from Merck/CalBiochem. PP2 (Src) and ML-7 (MLC kinase) were purchased from ENZO. Y-27632 (Rock) and SB-431542 (TGFb) were purchased from BioMol Tocris. AG1478 (EGFR) was purchased from BioMol and AG-82 (general protein tyrosine kinases) was purchased from Calbiochem. Cell migration was analyzed in the absence and presence of inhibitors for 4 days.
A proof of principle drug screen was performed to test the applicability of this procedure to automated high-throughput drug screening assays (HTS). […]

Assay [3] concerns Osteosarcoma. In words: Inhibitor treatment of spheroids from fresh human osteosarcoma biopsy in collagen gel. Particulars: lowest collagen concentration 1.0 mg/ml; bright-field images after 6 days; treatment from 1 day post-injection. The format is cell-based.
Excerpt: as §1, §2, §3, §4

“Also recorded” adds a separate entry of the source.

Turning to `COc1cc2ncnc(Nc3cccc(Cl)c3)c2cc1OC` [AG1478], the “Migration of Chondrosarcoma spheroids” value in assay [1] is given as “block migration completely; also recorded: effectively inhibited migration”. Further, in assay [2], the Feret's Diameter (longest distance between any two points along the selection boundary, maximum caliper), averages worked out at 0.56 mm; the “Circularity (4π*area/perimeter^2, 1 = perfect circle), averages” value worked out at 0.19; the “Invasion area (area day 4/area day 0), averages” value (“Invasion area” below) worked out at 25.75. Besides, the “Migration of Osteosarcoma spheroids” value in assay [3] is reported as “block migration; also recorded: effectively inhibited migration”.
In the case of `N#CC(C#N)=Cc1cc(O)c(O)c(O)c1` [AG-82], in assay [2], the Feret's Diameter (longest distance between any two points along the selection boundary, maximum caliper), averages turned out to be 0.46 mm; the “Circularity (4π*area/perimeter^2, 1 = perfect circle), averages” value amounted to 0.24; the “Invasion area” value came to 20.96.
Take `CC(C)(O)/C=C/C(=O)[C@](C)(O)[C@H]1[C@H](O)C[C@@]2(C)[C@@H]3CC=C4[C@@H](C=C(O)C(=O)C4(C)C)[C@]3(C)C(=O)C[C@]12C` [JSI-124]: the “Migration of Chondrosarcoma spheroids” value in assay [1] is “block migration completely; also recorded: effectively inhibited migration”. In assay [2], the Feret's Diameter (longest distance between any two points along the selection boundary, maximum caliper), averages was found to be 0.23 mm; the “Circularity (4π*area/perimeter^2, 1 = perfect circle), averages” value came out at 0.78; the “Invasion area” value is recorded as 1.01; the “Cell migration from 4T1 spheroids” value is “Effects on cell migration could be clearly observed; also recorded: blocked migration, but left the MS intact”. For the same compound, in assay [3], the “Migration of Osteosarcoma spheroids” value was “block migration; also recorded: effectively inhibited migration”.
In the case of `O=c1cc(N2CCOCC2)oc2c(-c3ccccc3)cccc12` [LY-294002], in assay [2], the Feret's Diameter (longest distance between any two points along the selection boundary, maximum caliper), averages came to 0.38 mm; the “Circularity (4π*area/perimeter^2, 1 = perfect circle), averages” value was determined as 0.26; the “Invasion area” value stood at 14.91.
In the case of `O=S(=O)(c1cccc2c(I)cccc12)N1CCCNCC1` [ML-7], in assay [1], the “Migration of Chondrosarcoma spheroids” value was “block migration completely; also recorded: effectively inhibited migration”. In assay [2], the “Invasion area” value was 1.09 and the “Cell migration from 4T1 spheroids” value is on record as “Effects on cell migration could be clearly observed”. Besides, in assay [2] (rhodamine phalloidin actin fluorescence, 4 days treatment), the “Cell survival in 4T1 spheroids” value was “did not survive the treatment; also recorded: affected cell survival”. Moreover, the “Migration of Osteosarcoma spheroids” value in assay [3] is on record as “block migration; also recorded: effectively inhibited migration”.
On to `CCN(CC)CCCC(C)Nc1nc(C)cc(Nc2ccc3nc(C)cc(N)c3c2)n1` (centres unmarked) [NSC23766], for which, in assay [2], the Feret's Diameter (longest distance between any two points along the selection boundary, maximum caliper), averages amounted to 0.37 mm; the “Circularity (4π*area/perimeter^2, 1 = perfect circle), averages” value amounted to 0.29; the “Invasion area” value is 17.51.
Regarding `CC(C)(C)n1nc(-c2ccc(Cl)cc2)c2c(N)ncnc21` [PP2], the “Migration of Chondrosarcoma spheroids” value in assay [1] is listed as “reduces migration; also recorded: effectively inhibited migration”. Further, in assay [2], the Feret's Diameter (longest distance between any two points along the selection boundary, maximum caliper), averages stood at 0.55 mm; the “Circularity (4π*area/perimeter^2, 1 = perfect circle), averages” value stood at 0.19; the “Invasion area” value stood at 22.48. The “Migration of Osteosarcoma spheroids” value in assay [3] is “block migration; also recorded: effectively inhibited migration”.
Regarding `NC(=O)c1ccc(-c2nc(-c3ccc4c(c3)OCO4)c(-c3ccccn3)[nH]2)cc1` [SB-431542], in assay [2], the Feret's Diameter (longest distance between any two points along the selection boundary, maximum caliper), averages was found to be 0.46 mm; the “Circularity (4π*area/perimeter^2, 1 = perfect circle), averages” value came out at 0.22; the “Invasion area” value is recorded as 16.
As to `C[C@@H](N)[C@H]1CC[C@H](C(=O)Nc2ccncc2)CC1` [Y-27632], the “Migration of Chondrosarcoma spheroids” value in assay [1] is on record as “stimulates migration”. Moreover, in assay [2], the Feret's Diameter (longest distance between any two points along the selection boundary, maximum caliper), averages was found to be 0.41 mm; the “Circularity (4π*area/perimeter^2, 1 = perfect circle), averages” value is on record as 0.35; the “Invasion area” value is 16.86. In addition, in assay [3], the “Migration of Osteosarcoma spheroids” value is on record as “stimulates migration”.

For the origin of these results see US20140221225A1, “METHOD FOR OBTAINING A MULTICELLULAR SPHEROID” (Universiteit Leiden, priority 2011, published 2014).
